From article PMC11859928, “Design, Synthesis, and Antiproliferative Activity of Novel Indole/1,2,4-Triazole Hybrids as Tubulin Polymerization Inhibitors” (Pharmaceuticals, 2025)

Tests used:
Assay in all cases: NCI one-dose assay
Assay type in all cases: cell-based
[1] = system: KM12; conditions: Homo sapiens, KM12, Colon cancer, read-out: Cell growth inhibition %
Procedure: (§1) The National Cancer Institute (NCI), Bethesda, USA, selected the final compounds 6a–j and 7a–j for in vitro anticancer screening. An initial in vitro single-dose anticancer experiment was performed with the entire NCI 60 cell lines derived from nine tumor subpanel cancer cell lines. The results for each compound were illustrated as a mean graph showing the percentage growth of treated cells compared to untreated control cells (see Supplementary Materials).
(§2) The NCI anticancer screening process has been thoroughly detailed. The Drug Evaluation Branch of the National Cancer Institute in Bethesda, […], USA, established the procedure and conducted the anticancer assay on 60 human tumor cell lines from nine neoplastic cancers.

[2] = system: K-562; conditions: Homo sapiens, K562, K-562, Leukemia, read-out: Cell growth inhibition %
Procedure: as §1, §2

[3] = system: OVCAR-3; conditions: Homo sapiens, OVCAR-3, Ovarian cancer, read-out: Cell growth inhibition %
Procedure: as §1, §2

[4] = system: MOLT-4; conditions: Homo sapiens, MOLT-4, Leukemia, read-out: Cell growth inhibition %
Procedure: as §1, §2

[5] = system: SF-539; conditions: Homo sapiens, SF-539, CNS cancer, read-out: Cell growth inhibition %
Procedure: as §1, §2

[6] = system: RPMI-8226; conditions: Homo sapiens, RPMI-8226, Leukemia, read-out: Cell growth inhibition %
Procedure: as §1, §2

[7] = system: MDA-MB-435; conditions: Homo sapiens, MDA-MB-435, Melanoma, read-out: Cell growth inhibition %
Procedure: as §1, §2

[8] = system: A549/ATCC; conditions: Homo sapiens, Non-small cell lung cancer, read-out: Cell growth inhibition %
Procedure: as §1, §2

[9] = system: UACC-62; conditions: Homo sapiens, UACC-62, Melanoma, read-out: Cell growth inhibition %
Procedure: as §1, §2

[10] = system: HCT-15; conditions: Homo sapiens, HCT-15, Colon cancer, read-out: Cell growth inhibition %
Procedure: as §1, §2

[11] = system: PC-3; conditions: Homo sapiens, PC-3, Prostate cancer, read-out: Cell growth inhibition %
Procedure: as §1, §2

[12] = system: MALME-3M; conditions: Homo sapiens, Melanoma, read-out: Cell growth inhibition %
Procedure: as §1, §2

[13] = system: MDA-MB-468; conditions: Homo sapiens, MDA-MB-468, Breast cancer, read-out: Cell growth inhibition %
Procedure: as §1, §2

[14] = system: HS 578 T; conditions: Homo sapiens, Breast cancer, read-out: Cell growth inhibition %
Procedure: as §1, §2

[15] = system: CAKI-1; conditions: Homo sapiens, CAKI-1, Renal cancer, read-out: Cell growth inhibition %
Procedure: as §1, §2

[16] = system: SF-268; conditions: Homo sapiens, SF-268, CNS cancer, read-out: Cell growth inhibition %
Procedure: as §1, §2

[17] = system: DU-145; conditions: Homo sapiens, DU-145, Prostate cancer, read-out: Cell growth inhibition %
Procedure: as §1, §2

[18] = system: ACHN; conditions: Homo sapiens, Renal cancer, read-out: Cell growth inhibition %
Procedure: as §1, §2

[19] = system: SNB-75; conditions: Homo sapiens, SNB-75, CNS cancer, read-out: Cell growth inhibition %
Procedure: as §1, §2

[20] = system: SK-MEL-5; conditions: Homo sapiens, SK-MEL-5, Melanoma, read-out: Cell growth inhibition %
Procedure: as §1, §2

[21] = system: UACC-257; conditions: Homo sapiens, UACC-257, Melanoma, read-out: Cell growth inhibition %
Procedure: as §1, §2

[22] = system: SK-MEL-2; conditions: Homo sapiens, SK-MEL-2, Melanoma, read-out: Cell growth inhibition %
Procedure: as §1, §2

[23] = system: IGROV1; conditions: Homo sapiens, IGROV-1, IGROV1, Ovarian cancer, read-out: Cell growth inhibition %
Procedure: as §1, §2

[24] = system: SN12C; conditions: Homo sapiens, Renal cancer, read-out: Cell growth inhibition %
Procedure: as §1, §2

[25] = system: OVCAR-4; conditions: Homo sapiens, OVCAR-4, Ovarian cancer, read-out: Cell growth inhibition %
Procedure: as §1, §2

[26] = system: NCI-H226; conditions: Homo sapiens, NCI-H226, Non-small cell lung cancer, read-out: Cell growth inhibition %
Procedure: as §1, §2

[27] = system: COLO 205; conditions: Homo sapiens, COLO 205, Colon cancer, read-out: Cell growth inhibition %
Procedure: as §1, §2

[28] = system: OVCAR-8; conditions: Homo sapiens, OVCAR-8, Ovarian cancer, read-out: Cell growth inhibition %
Procedure: as §1, §2

[29] = system: OVCAR-5; conditions: Homo sapiens, OVCAR-5, Ovarian cancer, read-out: Cell growth inhibition %
Procedure: as §1, §2

[30] = system: HOP-62; conditions: Homo sapiens, HOP-62, Non-small cell lung cancer, read-out: Cell growth inhibition %
Procedure: as §1, §2

[31] = system: NCI/ADR-RES; conditions: Homo sapiens, Ovarian cancer, read-out: Cell growth inhibition %
Procedure: as §1, §2

[32] = system: CCRF-CEM; conditions: Homo sapiens, Leukemia, read-out: Cell growth inhibition %
Procedure: as §1, §2

[33] = system: SR; conditions: Homo sapiens, Leukemia, read-out: Cell growth inhibition %
Procedure: as §1, §2

[34] = system: SNB-19; conditions: Homo sapiens, SNB-19, CNS cancer, read-out: Cell growth inhibition %
Procedure: as §1, §2

[35] = system: NCI-H23; conditions: Homo sapiens, NCI-H23, Non-small cell lung cancer, read-out: Cell growth inhibition %
Procedure: as §1, §2

[36] = system: M14; conditions: Homo sapiens, M14, Melanoma, read-out: Cell growth inhibition %
Procedure: as §1, §2

Row | Structure (SMILES) | inhibition at 10 µM [1] [%] | inhibition at 10 µM [2] [%] | inhibition at 10 µM [3] [%] | inhibition at 10 µM [4] [%] | inhibition at 10 µM [5] [%] | inhibition at 10 µM [6] [%] | inhibition at 10 µM [7] [%] | inhibition at 10 µM [8] [%] | inhibition at 10 µM [9] [%] | inhibition at 10 µM [10] [%] | inhibition at 10 µM [11] [%] | inhibition at 10 µM [12] [%] | inhibition at 10 µM [13] [%] | inhibition at 10 µM [14] [%] | inhibition at 10 µM [15] [%] | inhibition at 10 µM [16] [%] | inhibition at 10 µM [17] [%] | inhibition at 10 µM [18] [%] | inhibition at 10 µM [19] [%] | inhibition at 10 µM [20] [%] | other results
1 | C=CCn1c(SCC(=O)c2ccc(Cl)cc2)nnc1-c1c[nH]c2ccccc12 [Compound 6e, 2-((4-Allyl-5-(1H-indol-3-yl)-4H-1,2,4-triazol-3-yl)thio)-1-(4-chlorophenyl)ethenone] | -3.89 | 10.1 | -12.2 | 10.6 | 0.21 | 7.71 | -5.05 | 3.63 | 14.7 | 6.28 | 22.3 | 9.28 | 8 | -3.65 | 7.04 | -4.81 | -14.4 | 7.39 | -0.53 | 3.94 | inhibition at 10 µM [21]: 2.2%; inhibition at 10 µM [22]: -17.1%; inhibition at 10 µM [23]: 7.38%; inhibition at 10 µM [24]: 4.38%; inhibition at 10 µM [25]: -8%; inhibition at 10 µM [26]: 10.3%; inhibition at 10 µM [27]: -11.1%; inhibition at 10 µM [28]: 9.77%; inhibition at 10 µM [29]: -5.38%; inhibition at 10 µM [30]: 4.08%; inhibition at 10 µM [31]: -2.31%; inhibition at 10 µM [32]: 2.28%; inhibition at 10 µM [33]: 12.2%; inhibition at 10 µM [34]: 0.6%; inhibition at 10 µM [35]: -7.09%; inhibition at 10 µM [36]: 6.76%
2 | O=C(CSc1nnc(-c2c[nH]c3ccccc23)n1-c1ccccc1)c1ccccc1 [Compound 6f, 2-((5-(1H-indol-3-yl)-4-phenyl-4H-1,2,4-triazol-3-yl)thio)-1-phenylethanone] | 30.5 | 47.2 | 39.2 | 9.43 | 92.4 | 18.7 | 12.8 | 14.5 | 26.6 | 20.6 | 34.2 | 62.6 | 22.8 | 75.9 | 46.8 | 68.3 | 14.3 | 39.5 | -0.34 | 9.3 | inhibition at 10 µM [21]: -3.2%; inhibition at 10 µM [22]: 8.14%; inhibition at 10 µM [23]: 44.9%; inhibition at 10 µM [24]: 55.3%; inhibition at 10 µM [25]: 102%; inhibition at 10 µM [26]: 95.5%; inhibition at 10 µM [27]: 6.63%; inhibition at 10 µM [28]: 85.3%; inhibition at 10 µM [29]: 11.4%; inhibition at 10 µM [30]: 76.6%; inhibition at 10 µM [31]: 85.2%; inhibition at 10 µM [32]: 8.65%; inhibition at 10 µM [33]: 18.4%; inhibition at 10 µM [34]: 80.8%; inhibition at 10 µM [35]: 55.1%; inhibition at 10 µM [36]: 26.4%
3 | COc1ccc(C(=O)CSc2nnc(-c3c[nH]c4ccccc34)n2-c2ccccc2)cc1 [Compound 6g, 2-((5-(1H-Indol-3-yl)-4-phenyl-4H-1,2,4-triazol-3-yl)thio)-1-(4-methoxyphenyl) Ethenone] | 11.9 | 41.8 | 46.4 | 17.9 | 71.5 | 27.3 | 30.9 | 26 | 74.2 | 26.7 | 49.7 | 116 | 40.2 | 84.5 | 38.5 | 59 | 31.1 | 77.2 | 85 | 18.6 | inhibition at 10 µM [21]: 40.5%; inhibition at 10 µM [22]: 28%; inhibition at 10 µM [23]: 39.5%; inhibition at 10 µM [24]: 55.6%; inhibition at 10 µM [25]: 99.4%; inhibition at 10 µM [26]: 99.9%; inhibition at 10 µM [27]: 15.2%; inhibition at 10 µM [28]: 84.5%; inhibition at 10 µM [29]: 22.6%; inhibition at 10 µM [30]: 91.2%; inhibition at 10 µM [31]: 100%; inhibition at 10 µM [32]: 17.5%; inhibition at 10 µM [33]: 20.3%; inhibition at 10 µM [34]: 70.2%; inhibition at 10 µM [35]: 43.5%; inhibition at 10 µM [36]: 24.3%
4 | Cc1ccc(C(=O)CSc2nnc(-c3c[nH]c4ccccc34)n2-c2ccccc2)cc1 [Compound 6h, 2-((5-(1H-Indol-3-yl)-4-phenyl-4H-1,2,4-triazol-3-yl)thio)-1-(p-tolyl)ethenone] | 49 | 72.8 | 34.8 | 38.3 | 77.9 | 41.1 | 61.4 | 46.7 | 76.1 | 56.2 | 57 | 64.8 | 52 | 101 | 87.6 | 70.3 | 21.1 | 79.6 | 101 | 67.1 | inhibition at 10 µM [21]: 22.7%; inhibition at 10 µM [22]: 15.3%; inhibition at 10 µM [23]: 75.8%; inhibition at 10 µM [24]: 75.1%; inhibition at 10 µM [25]: 116%; inhibition at 10 µM [26]: 141%; inhibition at 10 µM [27]: 25%; inhibition at 10 µM [28]: 88.7%; inhibition at 10 µM [29]: 87%; inhibition at 10 µM [30]: 92.2%; inhibition at 10 µM [31]: 128%; inhibition at 10 µM [32]: 39.2%; inhibition at 10 µM [33]: 47%; inhibition at 10 µM [34]: 80.3%; inhibition at 10 µM [35]: 82.7%; inhibition at 10 µM [36]: 48.9%
